Test results published in PubChem BioAssay (NCI).
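Growth conditions: 96-well plates. Treatment: test compound, 48 hours, 5 concentrations. Analysis: linear interpolation between bracketing concentrations; unreached endpoints set to highest concentration. Definition used: TGI = concentration required for complete inhibition of growth.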

Tests used:
Assay in all cases: NCI anticancer screen, dose series, 48 h
BT-549 breast = system: BT-549 breast
A498 renal = system: A498 renal
NCI-H23 lung = system: NCI-H23 lung
HCT-15 colon = system: HCT-15 colon
MALME-3M melanoma = system: MALME-3M melanoma
UACC-62 melanoma = system: UACC-62 melanoma
HOP-92 NSCLC = system: HOP-92 NSCLC
CAKI-1 renal = system: CAKI-1 renal
NCI-H226 lung = system: NCI-H226 lung
A549 NSCLC = system: A549 NSCLC
HOP-62 NSCLC = system: HOP-62 NSCLC
SNB-75 CNS = system: SNB-75 CNS
MCF7 breast = system: MCF7 breast
ACHN renal = system: ACHN renal
DU-145 prostate = system: DU-145 prostate
OVCAR-4 ovarian = system: OVCAR-4 ovarian
HT29 colon = system: HT29 colon
NCI/ADR-RES ovarian = system: NCI/ADR-RES ovarian
SK-MEL-28 melanoma = system: SK-MEL-28 melanoma
UACC-257 melanoma = system: UACC-257 melanoma
MDA-MB-435 = system: MDA-MB-435
MOLT-4 leukemia = system: MOLT-4 leukemia
NCI-H460 lung = system: NCI-H460 lung
COLO 205 colon = system: COLO 205 colon
SF-539 CNS = system: SF-539 CNS
RPMI-8226 leukemia = system: RPMI-8226 leukemia
SF-268 CNS = system: SF-268 CNS
RXF 393 renal = system: RXF 393 renal
SNB-19 CNS = system: SNB-19 CNS
MDA-N = system: MDA-N
SF-295 CNS = system: SF-295 CNS
HCC-2998 colon = system: HCC-2998 colon
U251 CNS = system: U251 CNS
SR leukemia = system: SR leukemia
LOX IMVI melanoma = system: LOX IMVI melanoma
OVCAR-3 ovarian = system: OVCAR-3 ovarian
MDA-MB-231 breast = system: MDA-MB-231 breast
786-0 renal = system: 786-0 renal
IGROV1 ovarian = system: IGROV1 ovarian
PC-3 prostate = system: PC-3 prostate
SK-MEL-2 melanoma = system: SK-MEL-2 melanoma
HS 578T breast = system: HS 578T breast
SW-620 colon = system: SW-620 colon
NCI-H522 lung = system: NCI-H522 lung
T-47D breast = system: T-47D breast
CCRF-CEM leukemia = system: CCRF-CEM leukemia
HCT-116 colon = system: HCT-116 colon
OVCAR-8 ovarian = system: OVCAR-8 ovarian
KM12 colon = system: KM12 colon
EKVX NSCLC = system: EKVX NSCLC
SN12C renal = system: SN12C renal
M14 melanoma = system: M14 melanoma
OVCAR-5 ovarian = system: OVCAR-5 ovarian
TK-10 renal = system: TK-10 renal
UO-31 renal = system: UO-31 renal
SK-OV-3 ovarian = system: SK-OV-3 ovarian
SK-MEL-5 melanoma = system: SK-MEL-5 melanoma
K-562 leukemia = system: K-562 leukemia

`O=C(O)CSc1ccc(N=C=S)cc1` showed a TGI (BT-549 breast) greater than 100 µM, a TGI (A498 renal) greater than 100 µM and a TGI (NCI-H23 lung) greater than 100 µM. It also gave a TGI (HCT-15 colon) greater than 100 µM, a TGI (MALME-3M melanoma) of 84 µM and a TGI (UACC-62 melanoma) greater than 100 µM. The TGI (HOP-92 NSCLC) was greater than 100 µM, the TGI (CAKI-1 renal) was greater than 100 µM and the TGI (NCI-H226 lung) was greater than 100 µM. The TGI (A549 NSCLC) was greater than 100 µM, the TGI (HOP-62 NSCLC) was greater than 100 µM and the TGI (SNB-75 CNS) was greater than 100 µM. The TGI (MCF7 breast) was greater than 100 µM, the TGI (ACHN renal) was greater than 100 µM and the TGI (DU-145 prostate) was greater than 100 µM. It also gave a TGI (OVCAR-4 ovarian) greater than 100 µM, a TGI (HT29 colon) greater than 100 µM and a TGI (NCI/ADR-RES ovarian) greater than 100 µM. For the same compound, the TGI (SK-MEL-28 melanoma) was greater than 100 µM, the TGI (UACC-257 melanoma) was greater than 100 µM and the TGI (MDA-MB-435) was greater than 100 µM. It also gave a TGI (MOLT-4 leukemia) greater than 100 µM, a TGI (NCI-H460 lung) greater than 100 µM and a TGI (COLO 205 colon) greater than 100 µM. For the same compound, the TGI (SF-539 CNS) was 77.1 µM, the TGI (RPMI-8226 leukemia) was 57.1 µM and the TGI (SF-268 CNS) was greater than 100 µM. For the same compound, the TGI (RXF 393 renal) was greater than 100 µM, the TGI (SNB-19 CNS) was greater than 100 µM and the TGI (MDA-N) was greater than 100 µM. It also gave a TGI (SF-295 CNS) greater than 100 µM, a TGI (HCC-2998 colon) greater than 100 µM and a TGI (U251 CNS) greater than 100 µM. It also gave a TGI (SR leukemia) of 47.5 µM, a TGI (LOX IMVI melanoma) greater than 100 µM and a TGI (OVCAR-3 ovarian) greater than 100 µM. For the same compound, the TGI (MDA-MB-231 breast) was greater than 100 µM, the TGI (786-0 renal) was greater than 100 µM and the TGI (IGROV1 ovarian) was greater than 100 µM. For the same compound, the TGI (PC-3 prostate) was greater than 100 µM, the TGI (SK-MEL-2 melanoma) was greater than 100 µM and the TGI (HS 578T breast) was greater than 100 µM. The TGI (SW-620 colon) was greater than 100 µM, the TGI (NCI-H522 lung) was greater than 100 µM and the TGI (T-47D breast) was greater than 100 µM. It also gave a TGI (CCRF-CEM leukemia) of 51.5 µM, a TGI (HCT-116 colon) greater than 100 µM and a TGI (OVCAR-8 ovarian) greater than 100 µM. For the same compound, the TGI (KM12 colon) was greater than 100 µM, the TGI (EKVX NSCLC) was greater than 100 µM and the TGI (SN12C renal) was greater than 100 µM. For the same compound, the TGI (M14 melanoma) was greater than 100 µM, the TGI (OVCAR-5 ovarian) was greater than 100 µM and the TGI (TK-10 renal) was greater than 100 µM. For the same compound, the TGI (UO-31 renal) was greater than 100 µM, the TGI (SK-OV-3 ovarian) was greater than 100 µM and the TGI (SK-MEL-5 melanoma) was greater than 100 µM.

`CCOC(=O)c1cn2c(n1)sc1cc(C)c(C)cc12` showed a TGI (BT-549 breast) of 72.4 µM, a TGI (A498 renal) of 32.6 µM and a TGI (NCI-H23 lung) greater than 100 µM. For the same compound, the TGI (HCT-15 colon) was greater than 100 µM, the TGI (MALME-3M melanoma) was 35.1 µM and the TGI (UACC-62 melanoma) was greater than 100 µM. For the same compound, the TGI (HOP-92 NSCLC) was 65.4 µM, the TGI (CAKI-1 renal) was 39.4 µM and the TGI (NCI-H226 lung) was 44.9 µM. For the same compound, the TGI (A549 NSCLC) was 38.2 µM, the TGI (HOP-62 NSCLC) was 34.3 µM and the TGI (SNB-75 CNS) was 44.8 µM. The TGI (MCF7 breast) was greater than 100 µM, the TGI (ACHN renal) was 35.3 µM and the TGI (DU-145 prostate) was 48.8 µM. It also gave a TGI (OVCAR-4 ovarian) greater than 100 µM, a TGI (HT29 colon) of 33.8 µM and a TGI (NCI/ADR-RES ovarian) of 67.5 µM. It also gave a TGI (SK-MEL-28 melanoma) of 48.4 µM, a TGI (UACC-257 melanoma) greater than 100 µM and a TGI (MDA-MB-435) greater than 100 µM. The TGI (MOLT-4 leukemia) was 91.1 µM, the TGI (NCI-H460 lung) was greater than 100 µM and the TGI (COLO 205 colon) was 55 µM. It also gave a TGI (SF-539 CNS) of 29.6 µM, a TGI (RPMI-8226 leukemia) of 82.7 µM and a TGI (SF-268 CNS) of 52.7 µM. The TGI (RXF 393 renal) was 51.2 µM, the TGI (SNB-19 CNS) was 42.9 µM and the TGI (MDA-N) was 22 µM. The TGI (SF-295 CNS) was greater than 100 µM, the TGI (HCC-2998 colon) was greater than 100 µM and the TGI (U251 CNS) was 41.2 µM. For the same compound, the TGI (SR leukemia) was greater than 100 µM, the TGI (LOX IMVI melanoma) was greater than 100 µM and the TGI (OVCAR-3 ovarian) was 32.5 µM. For the same compound, the TGI (MDA-MB-231 breast) was 58.4 µM, the TGI (786-0 renal) was 34.9 µM and the TGI (IGROV1 ovarian) was 56.5 µM. It also gave a TGI (PC-3 prostate) of 45.7 µM, a TGI (SK-MEL-2 melanoma) greater than 100 µM and a TGI (K-562 leukemia) greater than 100 µM. For the same compound, the TGI (HS 578T breast) was 79.3 µM, the TGI (SW-620 colon) was 65.1 µM and the TGI (NCI-H522 lung) was 94.4 µM. For the same compound, the TGI (T-47D breast) was 62.1 µM, the TGI (CCRF-CEM leukemia) was greater than 100 µM and the TGI (HCT-116 colon) was 33.7 µM. It also gave a TGI (OVCAR-8 ovarian) of 52.3 µM, a TGI (KM12 colon) greater than 100 µM and a TGI (EKVX NSCLC) of 61.7 µM. The TGI (SN12C renal) was 36.8 µM, the TGI (M14 melanoma) was 85.2 µM and the TGI (OVCAR-5 ovarian) was 36.4 µM. The TGI (TK-10 renal) was 57.1 µM, the TGI (UO-31 renal) was 35.4 µM and the TGI (SK-OV-3 ovarian) was 69.2 µM. The TGI (SK-MEL-5 melanoma) was 32.1 µM.
